Test results reported in patent US20260306506A1, “PYRIDO[4,3-D]PYRIMIDINE COMPOUNDS” (Pfizer Inc., priority 2023, published 2026).

Columns and labels:
[1] = system: pancreatic cancer, non-small cell lung cancer, and colorectal cancer; assay: CTG assay, summary statement for cancer cell lines; format: cell-based; conditions: alkylidenyl and/or haloalkylidenyl on R^1; statement in words
Source text: (§1) The CellTiter-Glo® (CTG) Luminescent Cell Viability Assay is a homogeneous method of determining the number of viable cells in culture based on quantitation of the ATP present, an indicator of metabolically active cells. The CTG is designed for use with multi-well formats, making it ideal for automated high-throughput screening (HTS), cell proliferation and cytotoxicity assays. The homogeneous assay procedure involves adding the single reagent (CellTiter-Glo® Reagent) directly to cells cultured in serum-supplemented medium. Cell washing, removal of medium and multiple pipetting steps are not required. The system detects as few as 15 cells per well in a 384-well format in 10 minutes after adding reagent and mixing.
Cells are grown in humidified 5% CO2 incubator at 37° C. using the culture conditions outlined below. All cell culture media reagents were purchased from Gibco. […] Viability is determined on Day 7 using CellTiter-Glo® (CTG) Luminescent Cell Viability Assay (Promega). CTG is added to a final volume of 20 μl per well and incubated at room temperature for 15 minutes before luminescence is captured using an EnVision Reader with LUM384 US protocol. Data is analyzed using Activity Base to determine compound response and will be represented either as a percent effect (PCTEFF) or percent control (PCTOCTL) as described: Zero percent effect control (ZPE) (Negative control)—100% DMSO. […]

[2] = system: SW620 (colorectal cancer cell line); assay: KRAS Cell Titer Glo (CTG) viability assay, SW620; format: cell-based; conditions: Homo sapiens, SW-620, 168 h, SW620, 7-day; geometric mean when n>1
Source text: as §1
(§2) Cells are grown in humidified 5% CO2 incubator at 37° C. using the culture conditions outlined below. All cell culture media reagents were purchased from Gibco. Cell lines purchased from ATCC: H358 (non-small cell lung cancer cell line), SW620 (colorectal cancer cell line), PANC08.13 (RPM11640+10% FBS+10 units/ml Insulin, pancreatic cancer cell line). Test and control compounds are dispensed as nanoliter drops according to desired final concentrations in 0.1% DMSO using Echo Acoustic Dispenser onto 384 assay plates (Corning, Cat #3764) prior to cell seeding. Cells were seeded in 40 μL volume per well at the following cell densities (cells per well): H358 (300), SW620 (750), PANC 08.13 (600). Cells are incubated in the presence of compound for 7-days. Viability is determined on Day 7 using CellTiter-Glo® (CTG) Luminescent Cell Viability Assay (Promega). CTG is added to a final volume of 20 μl per well and incubated at room temperature for 15 minutes before luminescence is captured using an EnVision Reader with LUM384 US protocol. Data is analyzed using Activity Base to determine compound response and will be represented either as a percent effect (PCTEFF) or percent control (PCTOCTL) as described: Zero percent effect control (ZPE) (Negative control)—100% DMSO. Hundred percent effect (HPE) (Positive control)—1 μM Trametinib (GSK1120212, MEK inhibitor) (4 nl of 10 mM and 36 nl of DMSO per well). The following equations/nomenclature are used (% Effect; PCTEFF) and (% of Control; PCTOCTL): PCTEFF: 100*(Raw_Data_Value−HPE/ZPE−HPE), PCTOCTL: 100*Raw_Data_Value/User_Defined_Array), where the User_Defined_Array is either summarized HPE or ZPE.

[3] = target: T1, G12D GTPγS KRAS (aa1-185) (Homo sapiens, UniProt P01116, G12D); assay: SPR binding (Biacore), GTPγS-loaded KRAS G12D; conditions: for Kd: 10° C., geometric mean when n>1, read-out: KRasGTPgS G12D SPR KD; for KRasGTPgS G12D SPR t1/2: dissociative half-life, t1/2=0.693/koff
T1 construct: G12DGDP KRAS (aa1-185); made in house
Source text: (§3) No additional regeneration was used.
(§4) Compound dissociation was monitored for at least 3600 seconds. […] No additional regeneration was used.

[4] = system: KRAS G12C, KRAS G12D, and KRAS G12V receptors; assay: SPR binding, summary statement for KRAS mutants; conditions: alkylidenyl and/or haloalkylidenyl on R^1; statement in words
Source text: as §3, §4

[5] = system: PANC08.13 (pancreatic cancer cell line); assay: KRAS Cell Titer Glo (CTG) viability assay, Panc08.13; format: cell-based; conditions: Homo sapiens, PANC-08-13, 168 h, Panc08.13, 7-day; geometric mean when n>1
Source text: as §1, §2

[6] = system: H358 (non-small cell lung cancer cell line); assay: KRAS Cell Titer Glo (CTG) viability assay, H358; format: cell-based; conditions: Homo sapiens, NCI-H358, 168 h, H358, 7-day; geometric mean when n>1
Source text: as §1, §2

WT GTPγS KRAS (aa1-185) = target: T2, WT GTPγS KRAS (aa1-185) (Homo sapiens, UniProt P01116); assay: SPR binding (Biacore), GTPγS-loaded WT KRAS; conditions: for Kd: 10° C., geometric mean when n>1, read-out: KRasGTPgS SPR KD; for KRasGTPgS SPR t1/2: dissociative half-life, t1/2=0.693/koff
T2 construct: wild-type (WT) KRASGDP (aa1-185); made in house
Source text: as §3, §4

[7] = target: T3, G12C GTPγS KRAS (aa2-184) (Homo sapiens, UniProt P01116, G12C); assay: SPR binding (Biacore), GTPγS-loaded KRAS G12C; conditions: for Kd: 10° C., geometric mean when n>1, read-out: KRasGTPgS G12C SPR KD; for KRasGTPgS G12C SPR t1/2: dissociative half-life, t1/2=0.693/koff
T3 construct: G12CGDP KRAS (aa2-184); made in house
Source text: as §3, §4

[8] = target: T4, G12V GTPγS KRAS (aa2-184) (Homo sapiens, UniProt P01116, G12V); assay: SPR binding (Biacore), GTPγS-loaded KRAS G12V; conditions: for Kd: 10° C., geometric mean when n>1, read-out: KRasGTPgS G12V SPR KD; for KRasGTPgS G12V SPR t1/2: dissociative half-life, t1/2=0.693/koff
T4 construct: G12VGDP KRAS (aa2-184); made in house
Source text: as §3, §4

G12V GDP KRAS (aa2-184) = G12V GDP KRAS (aa2-184) (Homo sapiens, UniProt P01116, G12V); assay: biochemical
Procedure: (§5) The binding affinity and kinetics were measured by Surface Plasmon Resonance (SPR) using Biacore 8K or 8K+ (Cytiva, Marlborough, MA) instruments. Recombinant, C-terminal site-specific biotinylated, wild-type (WT) KRASGDP (aa1-185), G12DGDP KRAS (aa1-185), G12CGDP KRAS (aa2-184), G12VGDP KRAS (aa2-184), WT HRASGDP (aa2-184) and WT NRASGDP (aa2-185) proteins were purified in presence of 1 μM GDP. The GDP-loaded KRAS proteins then went through nucleotide exchange with GTPγS (a non-hydrolysable analog of GTP) in the presence of alkaline phosphatase beads to obtain WTGTPγS KRAS (aa1-185), G12DGTPγS KRAS (aa1-185), G12CGTPγS KRAS (aa2-184), G12VGTPγS KRAS (aa2-184), WT HRASGTPγS (aa2-184) and WT NRASGTPγS (aa2-185). Binding measurements were performed parallelly in sets of either WT/G12D/G12C/G12V KRAS or WT K/H/N RAS proteins in GDP- and/or GTPγS-loaded forms, respectively.
(§6) Biacore instrument was desorbed and docked with a Series S Sensor Chip SA. […] Compound binding kinetics were measured in either multi-cycle or single-cycle kinetic format.
(§7) A 2-fold, 10-point serial dilution of test compounds was set-up in a 96-well microplate (Greiner; Cat #650101) with a top concentration of either 10 μM or 100 μM. Binding kinetics was measured at 10° C. by injecting serial dilution of compounds onto both reference and RAS immobilized channels at a flow rate of 100 μL/min and association time of 90 seconds. Compound dissociation was monitored for at least 400 seconds during each cycle. […]
(§8) A 3-fold, 6-point serial dilution of compounds was set-up in a deep 96-well microplate (Greiner Bio; Cat #780201) with the highest concentration of 1 μM (concentration range: 0.004-1 μM). Binding kinetics was measured at 10° C. by injecting serial dilutions of compounds in increasing order onto reference as well as RAS immobilized channels at a flow rate of 100 μL/min and association time of 120 seconds. Compound dissociation was monitored for at least 3600 seconds. […]
(§9) Both MCK and SCK data were processed and analyzed using Biacore Insight evaluation software (Cytiva, Marlborough, MA)). […]

[9] = target: T5, wild-type (WT) KRAS GDP (aa1-185) (Homo sapiens, UniProt P01116); assay: SPR binding (Biacore), GDP-loaded WT KRAS; conditions: 10° C., geometric mean when n>1
T5 construct: wild-type (WT) KRASGDP (aa1-185); made in house
Source text: as §3, §4

G12D GDP KRAS (aa1-185) = G12D GDP KRAS (aa1-185) (Homo sapiens, UniProt P01116, G12D); assay: biochemical
Procedure: as §5, §6, §7, §8, §9

G12C GDP KRAS (aa2-184) = G12C GDP KRAS (aa2-184) (Homo sapiens, UniProt P01116, G12C); assay: biochemical
Procedure: as §5, §6, §7, §8, §9

Structure (SMILES)	cellular activities against certain tumors [1]	IC50 [2] [nM]	Kd [3] [nM]	KRasGTPgS G12D SPR t1/2 [3] [h]	binding affinities [4]	IC50 [5] [nM]	IC50 [6] [nM]	Kd (WT GTPγS KRAS (aa1-185)) [nM]	KRasGTPgS SPR t1/2 (WT GTPγS KRAS (aa1-185)) [h]	Kd [7] [nM]	KRasGTPgS G12C SPR t1/2 [7] [h]	Kd [8] [nM]	KRasGTPgS G12V SPR t1/2 [8] [h]	Kd (G12V GDP KRAS (aa2-184)) [nM]	Kd [9] [nM]	Kd (G12D GDP KRAS (aa1-185)) [nM]	Kd (G12C GDP KRAS (aa2-184)) [nM]
C#Cc1c(F)ccc2cc(O)cc(-c3nc4c5c(nc(OC[C@@]67CCCN6C/C(=C/F)C7)nc5c3F)N3CCCOC[C@H]3CO4)c12 [Example 34, 5-ethynyl-6-fluoro-4-[(8aS)-4-fluoro-2-{[(2E,7aS)-2-(fluoromethylidene)tetrahydro-1H-pyrrolizin-7a(5H)-yl]methoxy}-8a,9,12,13-tetrahydro-8H,11H-7,10-dioxa-1,3,6,13a-tetraazanaphtho[1,8-ab]heptalen-5-yl]naphthalen-2-ol]	may enhance	2.3	< 0.0061	>192.7	may enhance	< 0.5	1.2	< 0.0106	>192.7	< 0.0145	>192.7	< 0.0097	>192.7	–	–	–	–
C#Cc1c(F)ccc2cc(O)cc(-c3nc4c5c(nc(OC[C@@]67CCCN6CC(=C)C7)nc5c3F)N3CCCC[C@H]3CO4)c12 [Example 36, 5-ethynyl-6-fluoro-4-[(8aS)-4-fluoro-2-{[(7aS)-2-methylidenetetrahydro-1H-pyrrolizin-7a(5H)-yl]methoxy}-8,8a,9,10,11,12-hexahydro-7-oxa-1,3,6,12a-tetraazabenzo[4,5]cyclohepta[1,2,3-de]naphthalen-5-yl]naphthalen-2-ol]	–	18.7	0.404	3.6	–	2.7	13.1	0.475	6.0	0.372	11.0	0.316	8.9	0.286	0.04	0.289	0.067
C#Cc1c(F)ccc2cc(O)cc(-c3nc4c5c(nc(OC[C@@]67CCCN6CC(=C)C7)nc5c3F)N(CC)CCO4)c12 [Example 37, 4-(10-ethyl-4-fluoro-2-{[(7aS)-2-methylidenetetrahydro-1H-pyrrolizin-7a(5H)-yl]methoxy}-9,10-dihydro-8H-7-oxa-1,3,6,10-tetraazacyclohepta[1,2,3-de]naphthalen-5-yl)-5-ethynyl-6-fluoronaphthalen-2-ol]	–	138	1.27	0.4	–	18.3	40.5	3.5	0.3	3.02	0.4	2.07	0.4	0.056	0.015	0.018	0.01
